# Read-outs that look alike come from different tables or passages of the source.
# Assays:
# M. aurum = assay: MIC against mycobacterial species; assay type: cell-based; conditions: M. aurum
# M. avium = assay: MIC against mycobacterial species; assay type: cell-based, Mycobacterium avium
# M. chelonae = assay: MIC against mycobacterial species; assay type: cell-based; conditions: M. chelonae
# M. gordonae = assay: MIC against mycobacterial species; assay type: cell-based; conditions: M. gordonae 324
# M. microti = assay: microbe, parasite or virus in culture; assay type: cell-based
# M. intracellulare = assay: MIC against mycobacterial species; assay type: cell-based
# M. phlei = assay: MIC against mycobacterial species; assay type: cell-based; conditions: M. phlei
# S. aureus = assay: microbe, parasite or virus in culture; assay type: cell-based, Staphylococcus aureus; conditions: strain ATCC 25923, WT
# S. lividans = assay: microbe, parasite or virus in culture; assay type: cell-based, Streptomyces lividans; conditions: strain 1326, WT
# M. smegmatis = assay: microbe, parasite or virus in culture; assay type: cell-based, Mycobacterium smegmatis; conditions: strain mc^2155, WT
# A. baumannii = assay: microbe, parasite or virus in culture; assay type: cell-based, Acinetobacter baumannii; conditions: strain ATCC 1960, WT
# E. coli = assay: microbe, parasite or virus in culture; assay type: cell-based, Escherichia coli; conditions: strain O157:H7, WT
# P. aeruginosa = assay: microbe, parasite or virus in culture; assay type: cell-based, Pseudomonas aeruginosa; conditions: strain PA01 (H103), WT
# [1] = test system: representative Gram-positive and Gram-negative bacteria; assay type: cell-based
# M. bovis BCG = assay: microbe, parasite or virus in culture; assay type: cell-based, Mycobacterium bovis
# M. tuberculosis = assay: microbe, parasite or virus in culture; assay type: cell-based, Mycobacterium tuberculosis; conditions: for MIC90: Mycobacterium tuberculosis
# R. jostii = assay: microbe, parasite or virus in culture; assay type: cell-based, Rhodococcus jostii; conditions: strain RHA1, WT
# K. rhizophila = assay: microbe, parasite or virus in culture; assay type: cell-based, Kocuria rhizophila; conditions: WT
# [2] = Humans, oral, cited from earlier work
# [3] = rats; cited from earlier work
# [4] = Dogs, 250 μg/kg oral; cited from earlier work
# [5] = mice; cited from earlier work
# [6] = ivermectin: extra-label use; selamectin, moxidectin: therapeutic doses; cited from earlier work
# [7] = single dose, cited from earlier work
molecule,measurement,setting,value
Abamectin,MIC,M. aurum,8 µg/mL
same,MIC,M. avium; M. avium 702,>256 µg/mL
same,MIC,M. avium; M. avium 715,>256 µg/mL
same,MIC,M. chelonae,16 µg/mL
same,MIC,M. gordonae,16 µg/mL
same,MIC,M. microti; M. microti 1601,16 µg/mL
same,MIC,M. microti; M. microti 1608,64 µg/mL
same,MIC,M. microti; M. microti Ov254,256 µg/mL
same,MIC,M. intracellulare; M. intracellulare 1403 ATCC35761,16 µg/mL
same,MIC,M. intracellulare; M. intracellulare 1403 Trudeau,16 µg/mL
same,MIC,M. intracellulare; M. intracellulare D673,32 µg/mL
same,MIC,M. intracellulare; M. intracellulare FM,16 µg/mL
same,MIC,M. phlei,>256 µg/mL
CO[C@H]1C[C@H](O[C@H]2[C@H](C)O[C@@H](O[C@@H]3/C(C)=C/C[C@@H]4C[C@@H](C[C@]5(C=C[C@H](C)[C@@H](C6CCCCC6)O5)O4)OC(=O)[C@@H]4C=C(C)[C@@H](O)[C@H]5OC/C(=C\C=C\[C@@H]3C)[C@]54O)C[C@@H]2OC)O[C@@H](C)[C@@H]1O [Doramectin],In vitro MIC90,S. aureus,>256 µg/mL
same,In vitro MIC90,S. lividans,>256 µg/mL
same,In vitro MIC90,M. smegmatis,128 µg/mL
same,In vitro MIC90,A. baumannii,>256 µg/mL
same,In vitro MIC90,E. coli,>256 µg/mL
same,In vitro MIC90,P. aeruginosa,>256 µg/mL
same,Inhibitory effects,[1],not observed
same,In vitro MIC90,"M. bovis BCG; strain BCG Pasteur, WT",8 µg/mL
same,level of activity,"M. tuberculosis; against all Mycobacterium species, MTT",lower levels of activity
same,In vitro MIC90,"M. tuberculosis; strain 1254, WT",8 to 16 µg/mL
same,In vitro MIC90,"M. tuberculosis; strain CDC 1551, WT",4 to 8 µg/mL
same,In vitro MIC90,"M. tuberculosis; strain Erdman, WT",8 µg/mL
same,In vitro MIC90,"M. tuberculosis; strain H37Rv, WT",8 µg/mL
same,In vitro MIC90,R. jostii,>256 µg/mL
same,In vitro MIC90,K. rhizophila,>256 µg/mL
CO/N=C1\C[C@]2(C[C@@H]3C[C@@H](C/C=C(\C)C[C@@H](C)/C=C/C=C4\CO[C@@H]5[C@H](O)C(C)=C[C@@H](C(=O)O3)[C@]45O)O2)O[C@H](/C(C)=C/C(C)C)[C@H]1C [Moxidectin],MIC90,"S. aureus; Staphylococcus aureus, ATCC25923, read-out: In vitro MIC90",> 256 µg/mL
same,AUC,[2]; 3 mg fast,1442 ng·h/mL
same,Cmax,[2]; 3 mg fast,22.4 ng/mL
same,T½,[2]; 3 mg fast,33.8 days
same,AUC,[2]; 9 mg fast,3024 ng·h/mL
same,Cmax,[2]; 9 mg fast,57.9 ng/mL
same,T½,[2]; 9 mg fast,34.6 days
same,AUC,[2]; 18 mg fast,5856 ng·h/mL
same,Cmax,[2]; 18 mg fast,141 ng/mL
same,T½,[2]; 18 mg fast,22 days
same,AUC,[2]; 36 mg fast,10824 ng·h/mL
same,Cmax,[2]; 36 mg fast,289 ng/mL
same,T½,[2]; 36 mg fast,20.2 days
same,AUC,[2]; 36 mg fed,14976 ng·h/mL
same,Cmax,[2]; 36 mg fed,296 ng/mL
same,T½,[2]; 36 mg fed,25.7 days
same,MIC90,"S. lividans; Streptomyces lividans, read-out: In vitro MIC90",> 256 µg/mL
same,LD50,[3],106 mg/kg body weight
same,MIC,"M. aurum; Mycolicibacterium aurum, read-out: MIC",1 µg/mL
same,MIC90,"M. smegmatis; Mycolicibacterium smegmatis, read-out: In vitro MIC90",4 µg/mL
same,AUC,[4],11800 ng·h/mL
same,Cmax,[4],234 ng/mL
same,T½,[4],25.9 days
same,LD50,[5],84 mg/kg body weight
same,MIC90,"A. baumannii; Acinetobacter baumannii, ATCC1960, read-out: In vitro MIC90",> 256 µg/mL
same,MIC,M. avium; Mycobacterium avium,> 256 µg/mL
same,MIC,"M. avium; Mycobacterium avium, ATCC25291, M. avium ATCC 25291, read-out: MIC",> 128 µg/mL
same,MIC,"M. avium; Mycobacterium avium, M. avium 715",> 256 µg/mL
same,toxicity in dogs lacking MDR1 P-glycoprotein / homozygous MDR1 mutation,[6],without any signs of toxicosis
same,MIC90,"E. coli; Escherichia coli, read-out: In vitro MIC90",> 256 µg/mL
same,MIC90,"P. aeruginosa; Pseudomonas aeruginosa, read-out: In vitro MIC90",> 256 µg/mL
same,MIC,"M. chelonae; Mycobacteroides chelonae, read-out: MIC",4 µg/mL
same,dose reported safe in humans,[7]; clinical studies,up to 36 mg
same,dose reported not safe in humans,[7],54 mg
same,MIC90,"M. bovis BCG; Mycobacterium tuberculosis variant bovis BCG, BCG, read-out: In vitro MIC90",4 µg/mL
same,MIC,"M. gordonae; Mycobacterium gordonae, read-out: MIC",4 µg/mL
same,MIC90,"M. tuberculosis; ERDMAN, read-out: In vitro MIC90, strain Erdman, WT",2 to 4 µg/mL
same,MIC90,"M. tuberculosis; read-out: In vitro MIC90, strain 1254, WT",4 µg/mL
same,MIC90,"M. tuberculosis; read-out: In vitro MIC90, strain BC-DS1 (drug-susceptible)",4 µg/mL
same,MIC90,"M. tuberculosis; read-out: In vitro MIC90, strain BC-DS3 (drug-susceptible)",2 µg/mL
same,MIC90,"M. tuberculosis; read-out: In vitro MIC90, strain BC-DS4 (drug-susceptible)",2 µg/mL
same,MIC90,"M. tuberculosis; read-out: In vitro MIC90, strain BC-DS5 (drug-susceptible)",2 to 4 µg/mL
same,MIC90,"M. tuberculosis; read-out: In vitro MIC90, strain CDC 1551, WT",2 µg/mL
same,MIC,"M. microti; M. microti 1601, read-out: MIC",4 µg/mL
same,MIC,"M. microti; M. microti 1608, read-out: MIC",4 µg/mL
same,MIC,"M. microti; M. microti Ov254, read-out: MIC",4 µg/mL
same,MIC,"M. intracellulare; Mycobacterium intracellulare, M. intracellulare D673",> 256 µg/mL
same,MIC,"M. intracellulare; Mycobacterium intracellulare, M. intracellulare FM",> 256 µg/mL
same,MIC,"M. intracellulare; Mycobacterium intracellulare, M. intracellulare 1403 ATCC35761, read-out: MIC",16 µg/mL
same,MIC,"M. intracellulare; Mycobacterium intracellulare, M. intracellulare 1403 Trudeau, read-out: MIC",32 µg/mL
same,MIC90,"R. jostii; Rhodococcus jostii, read-out: In vitro MIC90",> 256 µg/mL
same,MIC90,"K. rhizophila; Kocuria rhizophila, read-out: In vitro MIC90",> 256 µg/mL
same,MIC,"M. phlei; Mycolicibacterium phlei, read-out: MIC",8 µg/mL
